Reference: patent US10144715B2, “Piperazine derivatives as liver X receptor modulators” (priority 2014, dated 2018)
pEC50, pKi: −log10 of the molar value. Read-outs that look alike come from different tables or passages of the source.

Assays:
LXR β LBD protein = LXR β LBD protein (Homo sapiens (Human), UniProt P55055); assay: biochemical; format: binding
[1] = biological target: Gal4 DNA binding domain fused to the LBD of LXRβ in HEK293 cells (Homo sapiens (Human), UniProt P55055); assay: cell-based
Sequence of Gal4 DNA binding domain fused to the LBD of LXRβ in HEK293 cells (P55055 222-460 limits assumed): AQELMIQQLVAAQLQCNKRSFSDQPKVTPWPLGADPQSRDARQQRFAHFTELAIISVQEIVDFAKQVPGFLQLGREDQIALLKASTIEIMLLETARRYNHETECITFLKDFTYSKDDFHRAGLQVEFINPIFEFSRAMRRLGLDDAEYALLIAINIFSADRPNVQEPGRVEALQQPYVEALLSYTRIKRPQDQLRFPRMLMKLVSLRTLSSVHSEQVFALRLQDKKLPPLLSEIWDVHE

LXR α LBD protein = LXR α LBD protein (Homo sapiens (Human), UniProt Q13133); assay: LXR α radioligand binding assay (SPA, competition with [3H]TO901317); conditions: read-out: LXRα Binding Ki
Sequence of LXR α LBD protein (Q13133 209-447): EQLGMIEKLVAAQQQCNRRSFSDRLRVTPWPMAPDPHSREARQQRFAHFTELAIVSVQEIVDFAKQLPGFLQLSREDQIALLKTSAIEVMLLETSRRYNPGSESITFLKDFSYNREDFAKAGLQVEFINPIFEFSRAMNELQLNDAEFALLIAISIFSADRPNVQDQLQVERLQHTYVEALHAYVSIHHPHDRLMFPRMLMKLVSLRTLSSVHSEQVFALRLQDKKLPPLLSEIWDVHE

[2] = biological target: Gal4 DNA binding domain fused to the LBD of LXRα in HEK293 cells (Homo sapiens (Human), UniProt Q13133); assay: LXR luciferase transcriptional reporter gene assay, agonist mode, LXRα; format: cell-based; conditions: for pEC50: read-out: Cell LXRα EC50
Sequence of Gal4 DNA binding domain fused to the LBD of LXRα in HEK293 cells (Q13133 209-447): as above

Sequence of LXR β LBD protein (P55055 222-460 limits assumed): as the sequence (P55055 222-460 limits assumed) above

Row | SMILES | pKi (LXR β LBD protein; read-out: LXRβ Binding Ki) | pEC50 [1] | Cell LXRβ efficacy ([1]; agonist mode) | pKi (LXR α LBD protein) | Cell LXRα efficacy [2] | pEC50 [2] | Cell LXRβ efficacy [1] | pEC50 ([2]; agonist mode) | pKi (LXR β LBD protein) | pEC50 ([1]; agonist mode, read-out: Cell LXRβ EC50)
1 | CC(C)[C@@H]1CN(c2ccc(F)c(S(N)(=O)=O)c2)CCN1c1ncc(CO)c(C(F)(F)F)n1 [11-2, (R)-2-fluoro-5-(4-(5-(hydroxymethyl)-4-(trifluoromethyl)pyrimidin-2-yl)-3-isopropylpiperazin-1-yl)benzenesulfonamide] | 7.46 | 6.61 | 243 (46) % | 6.45 | 1336 (57) % | 5.87 | – | – | – | –
2 | CC(C)[C@@H]1CN(c2ccc(F)c(S(C)(=O)=O)c2)CCN1c1nc2ccccc2o1 [7-52, (R)-2-(4-(4-fluoro-3-(methylsulfonyl)phenyl)-2-isopropylpiperazin-1-yl)benzo[d]oxazole] | 7.39 | 6.72 | – | 6.44 | 1018 (76) % | 5.99 | 192 (48) % | – | – | –
3 | COC(c1cnc(N2CCN(c3ccc(F)c(S(C)(=O)=O)c3)C[C@H]2C(C)C)nc1)C(F)(F)F (stereo partly drawn) [Cpd No 42-1, 2-((R)-4-(4-fluoro-3-(methylsulfonyl)phenyl)-2-isopropylpiperazin-1-yl)-5-(2,2,2-trifluoro-1-methoxyethyl)pyrimidine] | 7.48 | 6.91 | – | 6.44 | 763 (48) % | 6.12 | 124 (20) % | – | – | –
4 | CC(C)[C@@H]1CN(c2ccc(CO)c(S(C)(=O)=O)c2)CCN1c1ncc(C(C)(C)O)c(C(F)(F)F)n1 [10-7, (R)-2-(2-(4-(4-(hydroxymethyl)-3-(methylsulfonyl)phenyl)-2-isopropylpiperazin-1-yl)-4-(trifluoromethyl)pyrimidin-5-yl)propan-2-ol] | 7.74 | 6.63 | 235 (40) % | 6.58 | 1520 (51) % | – | – | 5.82 | – | –
5 | C[C@@H](c1ccc(C(F)(F)F)cc1)N1CCN(c2cccc(S(C)(=O)=O)c2)C[C@H]1c1ccccc1 [46-17, (R)-4-(3-(methylsulfonyl)phenyl)-2-phenyl-1-((S)-1-(4-(trifluoromethyl)phenyl)ethyl)piperazine] | – | < 4.70 | – | < 5.48 | – | < 4.70 | – | – | < 5.60 | –
6 | Cc1nc(N2CCN(c3ccc(F)c(S(C)(=O)=O)c3)C[C@H]2C(C)C)ncc1C(N)=O [17-24, (R)-2-(4-(4-fluoro-3-(methylsulfonyl)phenyl)-2-isopropylpiperazin-1-yl)-4-methylpyrimidine-5-carboxamide] | 6.21 | < 4.70 | – | < 5.48 | – | – | – | < 4.70 | – | –
7 | CCOC(=O)c1cnc(N2CCN(c3ccc(F)c(S(C)(=O)=O)c3)C[C@H]2C(C)C)nc1C [7-19, ethyl (R)-2-(4-(4-fluoro-3-(methylsulfonyl)phenyl)-2-isopropylpiperazin-1-yl)-4-methylpyrimidine-5-carboxylate] | 7.77 | 6.75 | – | 6.79 | 909 (40) % | – | 176 (32) % | 6.04 | – | –
8 | NS(=O)(=O)c1cccc(N2CCN(C[C@H]3CC[C@H](C(F)F)CC3)[C@H](c3ccccc3)C2)c1 (single isomer, unassigned) [48-20] | 5.81 | – | 6% | 5.33 | – | < 4.70 | – | – | – | 5.64
9 | CC(C)[C@@H]1CN(c2ccc(F)c(S(C)(=O)=O)c2)CCN1c1ncc([C@@H](C)O)c(C(F)(F)F)n1 [Cpd No 12-3, (R)-1-(2-((R)-4-(4-fluoro-3-(methylsulfonyl)phenyl)-2-isopropylpiperazin-1-yl)-4-(trifluoromethyl)pyrimidin-5-yl)ethan-1-ol] | – | 7.08 | 84 (29) % | 6.77 | 769 (43) % | 6.11 | – | – | 8.22 | –
10 | CC(=O)c1cnc(N2CCN(c3ccc(F)c(S(C)(=O)=O)c3)C[C@H]2C(C)C)nc1C(F)(F)F [Cpd No 13-1, (R)-1-(2-(4-(4-fluoro-3-(methylsulfonyl)phenyl)-2-isopropylpiperazin-1-yl)-4-(trifluoromethyl)pyrimidin-5-yl)ethan-1-one] | – | 7.31 | 49 (51) % | 7.21 | 253 (63) % | 6.60 | – | – | 8.52 | –
11 | C[C@@](O)(c1ccc(CN2CCN(c3cccc(S(C)(=O)=O)c3)C[C@@H]2c2ccccc2)cc1)C(F)(F)F [46-31, (R)-1,1,1-trifluoro-2-(4-(((S)-4-(3-(methylsulfonyl)phenyl)-2-phenylpiperazin-1-yl)methyl)phenyl)propan-2-ol] | – | < 4.70 | – | 5.18 | – | < 4.70 | – | – | 5.66 | –
12 | CS(=O)(=O)c1cccc(N2CCN(CC3CCN(CC(F)(F)F)CC3)[C@@H](c3ccccc3Cl)C2)c1 (single isomer, unassigned) [48-55] | 7.17 | 6.26 | – | 6.56 | 2129 (42) % | 5.67 | 547 (19) % | – | – | –
